Laboratory results taken from US11141413B2, “Method of treating renal cell carcinoma using N-(4-(6,7-dimethoxyquinolin-4-yloxy)phenyl)-N′-(4-fluorophenyl)cyclopropane-1,1-dicarboxamide, (2S)-hydroxybutanedioate” (Exelixis, Inc., priority 2016, dated 2021).

Tests used:
[1] = tested on: female rats; test: 14-day general toxicology study in female rats; format: in vivo, rat; conditions: 5 mg/kg/day for 14 days
[2] = target: CYP2C8 (Homo sapiens, UniProt P10632); test: In vitro CYP inhibition by cabozantinib; format: in vitro ADME
Sequence of CYP2C8 (P10632 whole entry): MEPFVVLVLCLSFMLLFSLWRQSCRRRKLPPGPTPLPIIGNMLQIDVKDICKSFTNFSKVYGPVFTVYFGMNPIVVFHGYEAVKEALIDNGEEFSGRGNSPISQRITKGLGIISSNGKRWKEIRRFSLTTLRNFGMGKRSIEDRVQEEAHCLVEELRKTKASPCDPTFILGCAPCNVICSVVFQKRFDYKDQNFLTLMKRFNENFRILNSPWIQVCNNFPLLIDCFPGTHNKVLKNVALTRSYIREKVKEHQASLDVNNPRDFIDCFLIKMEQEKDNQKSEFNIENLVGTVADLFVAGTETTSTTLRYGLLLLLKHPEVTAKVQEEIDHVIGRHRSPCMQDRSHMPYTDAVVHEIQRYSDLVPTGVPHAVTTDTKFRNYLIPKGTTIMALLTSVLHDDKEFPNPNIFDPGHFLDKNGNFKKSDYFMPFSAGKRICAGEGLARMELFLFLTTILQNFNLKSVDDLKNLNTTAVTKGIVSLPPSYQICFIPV

[3] = target: CYP2C19 (Homo sapiens, UniProt P33261); test: Metabolic pathways in vitro: effect of CYP inhibition on cabozantinib metabolite formation; format: in vitro ADME
Sequence of CYP2C19 (P33261 whole entry): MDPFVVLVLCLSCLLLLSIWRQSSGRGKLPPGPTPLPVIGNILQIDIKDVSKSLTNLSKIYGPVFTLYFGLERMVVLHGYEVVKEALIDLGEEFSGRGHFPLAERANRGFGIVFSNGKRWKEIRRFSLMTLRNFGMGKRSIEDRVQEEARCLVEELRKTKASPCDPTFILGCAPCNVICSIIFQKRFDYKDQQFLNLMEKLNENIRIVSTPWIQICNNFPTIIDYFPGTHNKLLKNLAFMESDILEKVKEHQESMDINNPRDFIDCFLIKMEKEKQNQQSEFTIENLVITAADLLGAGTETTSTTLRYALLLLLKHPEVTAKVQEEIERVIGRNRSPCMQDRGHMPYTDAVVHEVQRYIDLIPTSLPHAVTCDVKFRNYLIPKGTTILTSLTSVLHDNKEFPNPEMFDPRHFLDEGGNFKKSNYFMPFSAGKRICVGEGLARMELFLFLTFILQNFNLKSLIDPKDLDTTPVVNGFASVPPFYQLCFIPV

[4] = tested on: metastatic renal cell carcinoma (mRCC); test: CABOSUN (ALLIANCE A031203) trial, cabozantinib vs sunitinib as initial targeted therapy
Experimental: Pts were randomized 1:1 to receive Cabo (60 mg QD) or Sun (50 mg QD, 4 weeks on/2 weeks off). Pts were stratified by the IMDC risk groups (intermediate vs. poor risk) and bone metastasis (yes, no). […] Secondary endpoints included OS, investigator-assessed overall response rate (ORR), and toxicity. The Kaplan-Meier product-limit estimator was used to estimate the OS between treatment arms.

[5] = target: MRP2 (Homo sapiens, UniProt Q92887); test: Drug transporter systems in vitro; format: in vitro ADME
Sequence of MRP2 (Q92887 whole entry): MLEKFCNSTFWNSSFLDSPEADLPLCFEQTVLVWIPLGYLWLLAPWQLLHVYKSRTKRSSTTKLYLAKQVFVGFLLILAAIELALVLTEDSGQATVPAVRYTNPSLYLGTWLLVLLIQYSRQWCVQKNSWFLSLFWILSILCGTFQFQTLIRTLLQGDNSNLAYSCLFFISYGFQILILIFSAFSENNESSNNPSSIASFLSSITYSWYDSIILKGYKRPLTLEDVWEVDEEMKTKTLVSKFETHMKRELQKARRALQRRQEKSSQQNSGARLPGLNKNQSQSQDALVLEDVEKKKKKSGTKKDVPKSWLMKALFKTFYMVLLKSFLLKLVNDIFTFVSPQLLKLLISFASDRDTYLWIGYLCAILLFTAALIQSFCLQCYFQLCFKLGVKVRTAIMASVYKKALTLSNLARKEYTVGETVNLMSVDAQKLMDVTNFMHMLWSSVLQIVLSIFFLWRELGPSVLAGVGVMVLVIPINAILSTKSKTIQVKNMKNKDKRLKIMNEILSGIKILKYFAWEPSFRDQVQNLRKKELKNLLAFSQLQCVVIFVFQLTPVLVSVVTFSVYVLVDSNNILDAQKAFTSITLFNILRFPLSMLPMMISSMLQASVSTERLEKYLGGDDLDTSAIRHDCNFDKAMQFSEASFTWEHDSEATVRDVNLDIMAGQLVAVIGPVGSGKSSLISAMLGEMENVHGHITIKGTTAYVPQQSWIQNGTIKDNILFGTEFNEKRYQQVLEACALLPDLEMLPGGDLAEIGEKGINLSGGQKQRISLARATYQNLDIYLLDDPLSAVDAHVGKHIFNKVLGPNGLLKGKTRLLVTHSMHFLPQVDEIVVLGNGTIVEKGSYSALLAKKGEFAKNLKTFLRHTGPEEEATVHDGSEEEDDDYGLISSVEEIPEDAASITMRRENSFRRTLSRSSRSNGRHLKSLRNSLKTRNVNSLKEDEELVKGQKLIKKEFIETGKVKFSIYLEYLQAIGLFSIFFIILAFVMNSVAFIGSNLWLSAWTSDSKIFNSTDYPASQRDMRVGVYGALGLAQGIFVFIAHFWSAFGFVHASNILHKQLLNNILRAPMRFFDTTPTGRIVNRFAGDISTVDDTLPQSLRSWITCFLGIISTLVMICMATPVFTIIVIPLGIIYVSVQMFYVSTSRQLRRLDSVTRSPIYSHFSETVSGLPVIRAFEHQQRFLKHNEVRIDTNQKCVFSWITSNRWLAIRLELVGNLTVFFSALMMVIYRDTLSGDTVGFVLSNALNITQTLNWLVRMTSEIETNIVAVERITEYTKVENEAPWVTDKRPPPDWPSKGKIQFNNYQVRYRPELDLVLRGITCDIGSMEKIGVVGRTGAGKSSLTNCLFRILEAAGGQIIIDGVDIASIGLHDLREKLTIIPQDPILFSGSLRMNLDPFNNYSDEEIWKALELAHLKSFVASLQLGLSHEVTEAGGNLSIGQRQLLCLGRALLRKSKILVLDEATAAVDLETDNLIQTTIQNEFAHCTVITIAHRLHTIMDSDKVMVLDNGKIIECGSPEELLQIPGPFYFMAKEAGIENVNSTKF

[6] = tested on: human lymphocytes; test: In vitro cytogenetic assay
[7] = tested on: advanced renal cell carcinoma (RCC); test: METEOR (Study 1) randomized phase 3 trial, cabozantinib vs everolimus: PFS, OS, ORR; format: in vivo, human; conditions: for ORR (95% CI), IRC / ORR (95% CI), Investigator assessed / Progressive disease, IRC / Progressive disease, Investigator assessed / Stable disease, IRC / Stable disease, Investigator assessed / Confirmed ORR (95% CI), IRC / Confirmed ORR (95% CI), Investigator assessed / Confirmed responses (95% CI), IRC / Confirmed responses (95% CI), Investigator assessed: RECIST 1.1
[8] = Patients With High Tumor Burden
[9] = Primary TWT analysis (first 375), cut-off May 2015, min follow-up 11 mo, 247 PFS events
[10] = Pts with Bone and Visceral Metastases
[11] = Supportive analysis, all events (all 658), cut-off May 2015, min follow-up 6 mo, 394 PFS events
[12] = Traditional analysis (all 658), cut-off November 2014, min follow-up 2 days, 247 PFS events

COc1cc2nccc(Oc3ccc(NC(=O)C4(C(=O)Nc5ccc(F)cc5)CC4)cc3)c2cc1OC [cabozantinib]
Ovarian finding [1]: exhibited ovarian necrosis
Inhibition of CYP2C8 in vitro [2]: inhibitor
Effect of inhibition of CYP2C19 on cabozantinib metabolite formation [3]: no effect
Diarrhea, grade 3 or 4 ([4]; all-causality): 10%
Fatigue, grade 3 or 4 ([4]; all-causality): 6%
Hematologic adverse events, grade 3 or 4 ([4]; all-causality): 3%
Hypertension, grade 3 or 4 ([4]; all-causality): 28%
Palmar-plantar erythrodysesthesia, grade 3 or 4 ([4]; all-causality): 8%
All-causality grade 3 or 4 adverse events ([4]; in vivo): 67%
Median OS ([4]; in vivo): 30.3 months
ORR ([4]; in vivo): 46%
OS adjusted HR, cabozantinib vs sunitinib ([4]; in vivo): 0.80
Reduction in rate of progression or death vs sunitinib ([4]; in vivo): 34%
Median PFS ([4]; untreated mRCC, intermediate or poor risk): 8.2 months
MRP2 substrate status in vitro [5]: substrate
Clastogenicity [6]: not clastogenic
Kaplan-Meier estimate of % of patients alive ([7]; 6 Months landmark): 91% (87%, 93%)
Kaplan-Meier estimate of % of patients alive ([7]; 12 Months landmark): 73%
Kaplan-Meier estimate of % of patients alive ([7]; 12 Months landmark, listed as Cabozantinib): 73% (68%, 79%)
Kaplan-Meier estimate of % of patients alive ([7]; 18 Months landmark): 58%
Kaplan-Meier estimate of % of patients alive ([7]; 18 Months landmark, listed as Cabozantinib): 58% (53%, 64%)
Kaplan-Meier estimate of % of patients alive ([7]; 24 Months landmark): 48% (39%, 55%)
OS HR, planned interim analysis, cabozantinib vs everolimus ([7]; 49% information fraction, all 658 randomized, at time of primary PFS analysis): 0.67
ORR (95% CI), IRC ([7]; Asia Pacific): 28 (15-45) %
ORR (95% CI), Investigator assessed ([7]; Asia Pacific): 36 (21-53) %
Progressive disease, IRC ([7]; Asia Pacific): 10%
Progressive disease, Investigator assessed ([7]; Asia Pacific): 0%
Stable disease, IRC ([7]; Asia Pacific): 62%
Stable disease, Investigator assessed ([7]; Asia Pacific): 64%
ORR (95% CI), IRC ([7]; Europe): 15 (10-21) %
ORR (95% CI), Investigator assessed ([7]; Europe): 22 (16-29) %
Progressive disease, IRC ([7]; Europe): 10%
Progressive disease, Investigator assessed ([7]; Europe): 8%
Stable disease, IRC ([7]; Europe): 69%
Stable disease, Investigator assessed ([7]; Europe): 65%
Median OS ([7]; ITT, all 658 randomized, cutoff Dec. 31, 2015): 21.4 months
Objective response rate (confirmed, partial responses only) per IRC ([7]; ITT, all 658 randomized, cutoff May 22, 2015): 17%
ORR (95% CI), IRC ([7]; North America): 16 (10-24) %
ORR (95% CI), Investigator assessed ([7]; North America): 20 (13-29) %
Progressive disease, IRC ([7]; North America): 17%
Progressive disease, Investigator assessed ([7]; North America): 13%
Stable disease, IRC ([7]; North America): 62%
Stable disease, Investigator assessed ([7]; North America): 62%
Confirmed ORR (95% CI), IRC [7, 8]: 18 (12-24) %
Confirmed ORR (95% CI), Investigator assessed [7, 8]: 21 (15-28) %
Progressive disease, IRC [7, 8]: 8%
Progressive disease, Investigator assessed [7, 8]: 7%
Stable disease, IRC [7, 8]: 68%
Stable disease, Investigator assessed [7, 8]: 67%
Confirmed ORR (95% CI), IRC ([7]; Patients With Low Tumor Burden): 17 (12-24) %
Confirmed ORR (95% CI), Investigator assessed ([7]; Patients With Low Tumor Burden): 27 (20-34) %
Progressive disease, IRC ([7]; Patients With Low Tumor Burden): 16%
Progressive disease, Investigator assessed ([7]; Patients With Low Tumor Burden): 10%
Stable disease, IRC ([7]; Patients With Low Tumor Burden): 62%
Stable disease, Investigator assessed ([7]; Patients With Low Tumor Burden): 59%
Median PFS [7, 9]: 7.4 mo
PFS HR, cabozantinib vs everolimus [7, 9]: 0.58
Confirmed responses (95% CI), IRC ([7]; Pts with Bone Metastases): 17 (9-27) %
Confirmed responses (95% CI), Investigator assessed ([7]; Pts with Bone Metastases): 27 (18-39) %
Progressive disease, IRC ([7]; Pts with Bone Metastases): 13%
Progressive disease, Investigator assessed ([7]; Pts with Bone Metastases): 9%
Stable disease, IRC ([7]; Pts with Bone Metastases): 70%
Stable disease, Investigator assessed ([7]; Pts with Bone Metastases): 64%
Confirmed responses (95% CI), IRC [7, 10]: 20 (11-32) %
Confirmed responses (95% CI), Investigator assessed [7, 10]: 30 (19-43) %
Progressive disease, IRC [7, 10]: 15%
Progressive disease, Investigator assessed [7, 10]: 10%
Stable disease, IRC [7, 10]: 65%
Stable disease, Investigator assessed [7, 10]: 60%
Confirmed responses (95% CI), IRC ([7]; Pts without Bone Metastases): 17 (13-23) %
Confirmed responses (95% CI), Investigator assessed ([7]; Pts without Bone Metastases): 23 (18-28) %
Progressive disease, IRC ([7]; Pts without Bone Metastases): 12%
Progressive disease, Investigator assessed ([7]; Pts without Bone Metastases): 9%
Stable disease, IRC ([7]; Pts without Bone Metastases): 64%
Stable disease, Investigator assessed ([7]; Pts without Bone Metastases): 83%
Median PFS [7, 11]: 7.4 mo
PFS HR, cabozantinib vs everolimus [7, 11]: 0.51
Median PFS [7, 12]: 6 mo
PFS HR, cabozantinib vs everolimus [7, 12]: 0.48
